Results on 14 molecules are retold here after patent US8912200B2, “Alkynyl substituted pyrimidinyl-pyrroles active as kinases inhibitors” (Nerviano Medical Sciences S.R.L., priority 2011, dated 2014).

Test [1] deals with JAK2 dependent human megakaryoblastic leukemia cell line SET-2. Nature of the test: Cell proliferation assay (CellTiter-Glo, 72 hours). Type of test: cell-based. The note with it: Homo sapiens, SET-2 cells. The protocol:
The JAK2 dependent human megakaryoblastic leukemia cell line SET-2 (DSMZ, Braunschweig GERMANY) and the JAK2 independent human chronic myelogenous leukaemia cell line K562 (ECACC, Wiltshire, UK) were cultured in RPMI-1640 medium-Glutamax (Gibco BRL, Gaithesburg, Md., USA), supplemented with 10% fetal bovine serum (FBS) at 37° C. and 5% CO2.
Cell Proliferation Assay:
Approximately 5×10^3 cells were plated into 384 microtiter plate wells in 50 μL of growth media with different concentrations of inhibitors. The cells were incubated at 37° C. and 5% CO2 for 72 hours, then the plates were processed using CellTiter-Glo assay (Promega, Madison, Wis., USA) following the manufacturer's instruction. Briefly 25 μL/well reagent solution is added to each well and after 5 minutes shaking the micro-plates are read by Envision luminometer (PerkinElmer, Waltham, Mass., USA).
Data are analyzed by Symix Assay Explorer software (Symix Technologies Inc.) that provides sigmoidal fitting algorithm of the 8 points dilutions curves for IC50 determination.

The next test concerns the target T1, JAK2 kinase domain (Homo sapiens, UniProt O60674).
T1 construct: commercially available JAK2 kinase domain; purchased Invitrogen, Eugene, Oreg
Nature of the test: Biochemical assay for inhibitors of JAK kinase activity (JAK2, 33P-γ-ATP/dowex resin). As to conditions: JAK2 kinase domain 1 nM, 60 μM ATP. The source says: Biochemical Assay for Inhibitors of JAK Kinase Activity
Specific JAK2, JAK1 or JAK3 peptide substrates are trans-phosphorylated by JAK kinases in the presence of ATP traced with 33P-γ-ATP. At the end of the phosphorylation reaction, the unreacted ATP, cold and radioactive, is captured by an excess of dowex ion exchange resin that eventually settles by gravity to the bottom of the reaction plate. The supernatant is subsequently withdrawn and transferred into a counting plate that is then evaluated by β-counting.
500 g of wet resin (SIGMA, custom prepared resin DOWEX 1×8 200-400 mesh, 2.5 Kg) are weighed out and diluted 2 to 1 in 150 mM sodium formate, pH 3.00. The resin is allowed to settle down overnight and then the supernatant is discarded. After three washes as above over a couple of days, the resin is allowed to settle and two volumes (with respect to the resin volume) of 150 mM sodium formate buffer are added.
Kinase buffer was composed of 50 mM HEPES pH 7.5 containing 10 mM MgCl2, 2.5 mM DTT, 10 μM Na3VO4 and 0.2 mg/mL BSA.
JAK2 Specific Assay Conditions
The JAK2 kinase assay was run with a final enzyme concentration of 1 nM, in the presence of 60 μM ATP, 3 nM 33P-γ-ATP and 64 μM of substrate BioDBn*306 (Aminoacid sequence: LPLDKDYYVVREPGQ—SEQ ID NO: 1). The peptidic substrate was purchased from American Peptide Company (Sunnyvale, Calif.).
For IC50 determination, test compounds are received as a 1 mM solution in 100% DMSO, distributed into 96 well plates: compounds are then plated into the first column of a microtiter plate (A1 to G1), 100 μL/well.
An automated station for serial dilutions (Biomek FX, Beckman) is used for producing 1:3 dilutions in 100% DMSO, from line A1 to A10, and for all the compounds in the column. Moreover, 4-5 copies of daughter plates are prepared by reformatting 5 μL of this first set of 100% DMSO dilution plates into 384 deep well-plates: one of these plates with the serial dilutions of test compounds will be thawed the day of the experiments, reconstituted at a 3× concentration with water and used in the IC50 determination assays. In a standard experiment, the highest concentration (3×) of all compounds is 30 μM, while the lowest one is 1.5 nM. Each 384 well-plate will contain at least one curve of the standard inhibitor staurosporine and reference wells (total enzyme activity vs. no enzymatic activity) for the Z′ and signal to background evaluation.
384-well plates, V bottom (test plates) are prepared with 5 μL of the compound dilution (3×) and then placed onto a PlateTrak 12 robotized station (Perkin Elmer; the robot has one 384-tip pipetting head for starting the assay plus one 96-tip head for dispensing the resin) together with one reservoir for the Enzyme mix (3×) and one for the ATP mix (3×). At the start of the run, the robot aspirates 5 μL of ATP mix, makes an air gap inside the tips (3 μl) and aspirates 5 μL of JAK2 mix. The following dispensation into the plates plus 3 cycles of mixing, done by the robot itself, starts the kinase reaction. At this point, the correct concentrations are restored for all the reagents. The robot incubates the plates for 60 minutes at room temperature, and then stops the reaction by pipetting 60 μL of dowex resin suspension into the reaction mix. In order to avoid tip clogging, wide bore tips are used to dispense the resin suspension. Three cycles of mixing are done immediately after the addition of the resin. Another mixing cycle is performed after all the plates are stopped, this time using normal tips: the plates are then allowed to rest for about one hour in order to allow resin sedimentation. At this point, 27 μL of the supernatant are transferred into 384-Optiplates (Perkin-Elmer), with 50 μL of Microscint 40 (Perkin-Elmer); after 5 min of orbital shaking the plates are read on a Perkin-Elmer Top Count radioactivity counter. […]

T1 sequence (O60674 849-1124 limits assumed): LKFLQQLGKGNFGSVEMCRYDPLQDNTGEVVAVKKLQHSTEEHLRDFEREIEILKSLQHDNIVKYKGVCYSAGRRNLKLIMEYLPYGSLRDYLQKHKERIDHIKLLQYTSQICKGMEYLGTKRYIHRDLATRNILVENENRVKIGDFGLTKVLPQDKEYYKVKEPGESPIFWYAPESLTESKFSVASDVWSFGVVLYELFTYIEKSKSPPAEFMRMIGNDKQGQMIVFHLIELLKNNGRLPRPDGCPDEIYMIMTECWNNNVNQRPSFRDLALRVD

On to `Cc1ccc(Cl)cc1-c1[nH]c(-c2nc(N)ncc2C#Cc2ccccc2)cc1C(N)=O` [compound 1, 5-[2-Amino-5-(phenylethynyl)pyrimidin-4-yl]-2-(5-chloro-2-methylphenyl)-1H-pyrrole-3-carboxamide], for which the IC50 came to 300 nM in test [1] and 2 nM on JAK2 kinase domain.
The matching figures for `COc1ccccc1C#Cc1cnc(N)nc1-c1cc(C(N)=O)c(-c2cc(Cl)ccc2C)[nH]1` [compound 5, 5-{2-Amino-5-[(2-methoxyphenyl)ethynyl]pyrimidin-4-yl}-2-(5-chloro-2-methylphenyl)-1H-pyrrole-3-carboxamide]: 750 nM and 5 nM.
With `Cc1ccc(Cl)cc1-c1[nH]c(-c2nc(N)ncc2C#Cc2cccc(NC3CCN(C)CC3)c2)cc1C(N)=O` [compound 12, 5-[2-Amino-5-({3-[(1-methylpiperidin-4-yl)amino]phenyl}ethynyl)pyrimidin-4-yl]-2-(5-chloro-2-methylphenyl)-1H-pyrrole-3-carboxamide], the 50% inhibitory concentration (IC50) amounted to 500 nM in test [1] and 1 nM at JAK2 kinase domain.
Turning to `Cc1ccc(Cl)cc1-c1[nH]c(-c2nc(N)ncc2C#Cc2ccc(N3CCC(N4CCCC4)CC3)cc2)cc1C(N)=O` [compound 26, 5-[2-Amino-5-({4-[4-(pyrrolidin-1-yl)piperidin-1-yl]phenyl}ethynyl)pyrimidin-4-yl]-2-(5-chloro-2-methylphenyl)-1H-pyrrole-3-carboxamide], the IC50 came to 290 nM in test [1] and 1 nM on JAK2 kinase domain.
For `Cc1ccc(Cl)cc1-c1[nH]c(-c2nc(N)ncc2C#Cc2ccc(N3CCC[C@H]3CN3CCCC3)cc2)cc1C(N)=O` [compound 31, 5-[2-Amino-5-({4-[(2S)-2-(pyrrolidin-1-ylmethyl)pyrrolidin-1-yl]phenyl}ethynyl)pyrimidin-4-yl]-2-(5-chloro-2-methylphenyl)-1H-pyrrole-3-carboxamide], in that order: 310 nM and 1 nM.
The matching figures for `Cc1ccc(Cl)cc1-c1[nH]c(-c2nc(N)ncc2C#CC2CC2)cc1C(N)=O` [compound 38, 5-[2-Amino-5-(cyclopropylethynyl)pyrimidin-4-yl]-2-(5-chloro-2-methylphenyl)-1H-pyrrole-3-carboxamide]: 570 nM and 2 nM.
Consider `Cc1ccc(Cl)cc1-c1[nH]c(-c2nc(N)ncc2C#Cc2ccc(Br)cc2)cc1C(N)=O` [compound 40, 5-{2-Amino-5-[(4-bromophenyl)ethynyl]pyrimidin-4-yl}-2-(5-chloro-2-methylphenyl)-1H-pyrrole-3-carboxamide], for which the IC50 in test [1] came out at 2480 nM; against JAK2 kinase domain, 85 nM.
Consider `Cc1ccc(Cl)cc1-c1[nH]c(-c2nc(N)ncc2C#Cc2ccccc2NCCO)cc1C(N)=O` [compound 43, 5-[2-Amino-5-({2-[(2-hydroxyethyl)amino]phenyl}ethynyl)pyrimidin-4-yl]-2-(5-chloro-2-methylphenyl)-1H-pyrrole-3-carboxamide], for which the IC50 in test [1] was 960 nM; on JAK2 kinase domain, 13 nM.
For `Cc1ccc(Cl)cc1-c1[nH]c(-c2nc(N)ncc2C#CCN(C)C)cc1C(N)=O` [compound 44, 5-{2-Amino-5-[3-(dimethylamino)prop-1-yn-1-yl]pyrimidin-4-yl}-2-(5-chloro-2-methylphenyl)-1H-pyrrole-3-carboxamide], in that order: 460 nM and 11 nM.
For `Cc1ccc(Cl)cc1-c1[nH]c(-c2nc(N)ncc2C#Cc2ccccc2NCCN(C)C)cc1C(N)=O` [compound 45, 5-{2-Amino-5-[(2-{[2-(dimethylamino)ethyl]amino}phenyl)ethynyl]pyrimidin-4-yl}-2-(5-chloro-2-methylphenyl)-1H-pyrrole-3-carboxamide], in that order: 560 nM and 10 nM.
The matching figures for `Cc1ccc(Cl)cc1-c1[nH]c(-c2nc(N)ncc2C#Cc2cccnc2)cc1C(N)=O` [compound 53, 5-[2-Amino-5-(pyridin-3-ylethynyl)pyrimidin-4-yl]-2-(5-chloro-2-methylphenyl)-1H-pyrrole-3-carboxamide]: 110 nM and 2 nM.
Consider `Cc1ccc(Cl)cc1-c1[nH]c(-c2nc(N)ncc2C#CC(C)(C)O)cc1C(N)=O` [compound 54, 5-[2-Amino-5-(3-hydroxy-3-methylbut-1-yn-1-yl)pyrimidin-4-yl]-2-(5-chloro-2-methylphenyl)-1H-pyrrole-3-carboxamide], for which the results for the 50% inhibitory concentration (IC50) (in test [1]; on JAK2 kinase domain) were 780 nM and 16 nM, respectively.
With `Cc1ccc(Cl)cc1-c1[nH]c(-c2nc(N)ncc2C#Cc2ccc(CN3CCN(C)CC3)cc2)cc1C(N)=O` [compound 65, 5-[2-Amino-5-({4-[(4-methylpiperazin-1-yl)methyl]phenyl}ethynyl)pyrimidin-4-yl]-2-(5-chloro-2-methylphenyl)-1H-pyrrole-3-carboxamide], the IC50 in test [1] amounted to 80 nM; on JAK2 kinase domain, 1 nM.
Regarding `Cc1ccc(Cl)cc1-c1[nH]c(-c2ccnc(N)n2)c(C#Cc2cccc(NC3CCN(C)CC3)c2)c1C(N)=O` [compound 80, 5-(2-Aminopyrimidin-4-yl)-2-(5-chloro-2-methylphenyl)-4-({3-[(1-methylpiperidin-4-yl)amino]phenyl}ethynyl)-1H-pyrrole-3-carboxamide], the IC50 stood at 780 nM in test [1] and 6 nM against JAK2 kinase domain.
